Source: US20240024294A1, “COMPOSITIONS AND METHODS FOR THE TREATMENT OR PREVENTION OF PRETERM LABOR” (XOMA (US) LLC, priority 2020, published 2024)
Each block holds one compound with its values, some of them ahead of it.

Legend:
[1] = Phase II clinical trial Part A: plasma pharmacokinetics; type: in vivo, human
Description: (§1) Subjects participating in Part A of the study were diagnosed with preterm labor and were already receiving an atosiban infusion for 48 hours. Compound (2) was administered orally to each subject in an amount of 500 mg twice daily for 7 days, with a loading dose of 1,000 mg on Day 1.
(§2) In Part A of the study, fetal cardiac safety was monitored using Doppler ultrasound, and compound (2) pharmacokinetics were assessed on days 1, 2, 3 and 7 of the study. Amniotic Fluid Index was monitored from days 1 to 14. Time to delivery was also assessed.

[2] = molecular target: T1, Pept1 transporter protein (Homo sapiens, UniProt P46059); assay: Pept1 transporter substrate assessment; type: in vitro ADME; settings: compound 2 and salts thereof
T1 sequence (P46059 1-708): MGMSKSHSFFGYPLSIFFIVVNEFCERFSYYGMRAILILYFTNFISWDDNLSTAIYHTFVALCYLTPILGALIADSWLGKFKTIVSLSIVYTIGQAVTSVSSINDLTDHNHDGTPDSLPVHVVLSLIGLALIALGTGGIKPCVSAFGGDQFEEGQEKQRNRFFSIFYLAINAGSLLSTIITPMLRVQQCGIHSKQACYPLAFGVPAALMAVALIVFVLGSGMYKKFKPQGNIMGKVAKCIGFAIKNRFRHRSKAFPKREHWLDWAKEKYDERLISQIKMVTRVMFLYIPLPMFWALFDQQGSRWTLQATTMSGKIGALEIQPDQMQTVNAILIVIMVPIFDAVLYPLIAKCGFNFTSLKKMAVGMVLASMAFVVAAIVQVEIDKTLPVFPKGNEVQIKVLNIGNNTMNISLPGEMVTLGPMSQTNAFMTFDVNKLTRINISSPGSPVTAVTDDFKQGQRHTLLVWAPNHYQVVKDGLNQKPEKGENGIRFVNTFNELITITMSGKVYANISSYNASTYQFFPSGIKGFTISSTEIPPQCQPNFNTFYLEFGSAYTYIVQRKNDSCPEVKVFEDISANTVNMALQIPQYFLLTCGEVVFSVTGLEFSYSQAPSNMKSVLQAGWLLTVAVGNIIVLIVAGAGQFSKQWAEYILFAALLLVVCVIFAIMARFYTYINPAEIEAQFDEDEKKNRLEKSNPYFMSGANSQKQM
Excerpt: Compound 2 is de-esterified by ambient esterases in the small intestine and subsequently penetrates the small intestinal epithelium passively. […] Pept1 is known to mediate the absorption of a variety of valinate esters, as described, for example, in Vig et al., Adv. Drug Deliv. Rev. 65:1370-1385 (2013). […] Despite the presence the valinate ester functionality, compound 2 and salts thereof are not dependent upon this transporter for absorption across the small intestinal epithelium. […] Rather, compound 2 and salts thereof are converted in vivo to a form that is readily absorbed in a manner independent of energy and local proton gradient. This beneficial property, coupled with the high aqueous solubility of compound I and salts thereof, fosters a pharmacokinetic profile in which compound 2 and salts thereof readily dissolve in an aqueous environment and are in turn converted into a form capable of transported-independent absorption.

[3] = system: pregnant women with threatened spontaneous preterm labor; assay: Phase II clinical trial Part B: adverse events; type: in vivo, human; settings: patients undergoing atosiban infusion
Description: (§3) A total of n=58 patients were treated with compound (2) and atosiban, and n=55 patients were treated with placebo and atosiban. As in part A, patients underwent a 48-hour infusion with atosiban. On the first day of atosiban treatment, patients were administered either placebo or compound (2) in a loading dose of 1,000 mg. On subsequent days, patients were then administered either placebo or compound (2) twice daily in an amount of 500 mg per dose until delivery.
All participants received intravenous atosiban as standard-of-care therapy according to the approved product label for 48 hours. […]
Safety was assessed by way of the following outcomes: • maternal incidence of adverse events (AEs), treatment-emergent adverse events (TEAEs), clinically significant changes in laboratory safety tests, and vital signs from Day 1 until 28 days after birth; • incidence of AEs indicating fetal distress, such as growth retardation and/or changes in fetal heart rate monitoring and/or amniotic fluid index (AFI) or amniotic fluid volume (in twins); and incidence of neonates experiencing adverse events, as well as clinically significant changes in vital signs, Apgar score, weight and head circumference at birth, and a measure of neonatal morbidity from birth until 28 days after birth.

[4] = system: pregnant women with threatened spontaneous preterm labor; assay: Phase II clinical trial Part A: time to delivery; type: in vivo, human
Description: This example reports results of a Phase II clinical trial of compound (2) in pregnant women with threatened spontaneous preterm labor. In part A of the study, compound (2) was administered in open-label fashion to n=9 patients with gestational ages of from 28 to 34 weeks in order to assess pharmacokinetics and safety. In part B of the study, compound (2) was administered to a more expansive set of n=58 subjects in order to assess efficacy, as well as to further evaluate safety.
as §1, §2

[5] = system: pregnant women with threatened spontaneous preterm labor; assay: Phase II clinical trial Part A: safety (Doppler ultrasound, Amniotic Fluid Index, adverse events); type: in vivo, human
Description: as §1, §2

[6] = system: pregnant women with threatened spontaneous preterm labor; assay: Phase II clinical trial Part B: efficacy to delay preterm birth; type: in vivo, human
Description: as §3
Gestational age was confirmed by a first trimester ultrasound scan or by fertilization date. […] Subjects were required to begin treatment with atosiban within 24 hours before starting study treatment.
All participants received intravenous atosiban as standard-of-care therapy according to the approved product label for 48 hours. Treatment with study medication was to be initiated ideally simultaneously or at a maximum within 24 hours after initiating atosiban treatment. The loading dose of compound (2) was 1000 mg, with a maintenance dose of 500 mg twice a day, each 12 hours apart, for 7 days. Women allocated to the control group received the same dosing regimen with placebo. Subjects were instructed to record IMP administration in a patient diary and had to bring both opened and unopened IMP packages to each visit, in order to allow the assessment of compliance with study treatment.
Efficacy to delay preterm birth was assessed using the following outcomes: • delivery within 48 hours from start of treatment medication; • delivery within 7 days from start of treatment medication; • delivery before 37 weeks gestational age; and • time to delivery measured from start of treatment medication.
As this study was a proof-of-concept study, a primary efficacy endpoint was not prospectively defined. Other outcomes included the following: • uterine contractions assessed by electrohysterography, tocodynamometry, or abdominal palpation at each hour during the first 6 hours after start of test treatment; and • maternal plasma concentrations and pharmacokinetics of compound (1) (the active metabolite of compound (2)) and fetal cord blood concentrations at the time of delivery.
Analyses of the incidence of delivery within 2 days (48 h), within 7 days (168 h) post-compound (2) administration start, and before 37 weeks of gestational age was performed using logistic regression with treatment group as the independent variable. Strata effects (gestational age and number of fetuses) were included within the model. The treatment effect was expressed as an adjusted odds ratio with 90% confidence intervals. Treatment by strata interaction terms were explored. Other covariates explored included the pre-dose uterine contraction rate as well as the possibility of a site-to-site effect. Time to delivery measured from start of IMP administration was analyzed using Cox's proportional-hazards model. In addition, a log-rank test was performed. The analysis was performed using SAS® statistical software Version 9.4. P-values <0.10 were considered to indicate statistical significance.

[7] = relative to compound 1; cited from earlier work
[8] = molecular target: human PGF2α receptor (Homo sapiens, UniProt P43088); settings: competitive radioligand binding, U.S. Pat. No. 8,415,480, read-out: inhibition constant (Ki); cited from earlier work
Chain of human PGF2α receptor (P43088 whole entry): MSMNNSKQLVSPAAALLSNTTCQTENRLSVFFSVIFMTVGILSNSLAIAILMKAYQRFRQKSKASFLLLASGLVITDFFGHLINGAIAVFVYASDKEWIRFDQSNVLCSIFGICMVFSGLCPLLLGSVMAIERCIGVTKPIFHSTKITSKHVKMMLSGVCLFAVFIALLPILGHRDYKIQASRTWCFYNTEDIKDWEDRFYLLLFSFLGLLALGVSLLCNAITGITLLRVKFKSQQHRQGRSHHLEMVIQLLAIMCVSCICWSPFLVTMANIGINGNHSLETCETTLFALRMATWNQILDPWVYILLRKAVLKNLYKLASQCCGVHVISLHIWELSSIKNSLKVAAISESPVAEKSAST

[9] = crystal form stability and hygroscopicity; type: physicochemical
Excerpt: For example, this compound is readily crystallized using a several distinct experimental procedures. Compound 3 assumes a single, reproducible crystal form upon crystallization from a variety of media and under different ambient conditions. […] For instance, impurities associated with atmospheric water are not readily integrated into the crystalline form of compound 3.

- plasma concentrations and pharmacokinetic parameters compared with non-pregnant women ([1]; Part A): similar
- day on which steady-state concentrations were achieved ([1]; Part A, 1,000 mg loading dose on Day 1): 1 days
- absorption (plasma concentration vs. time profiles) ([1]; Part A, oral, day 1 to day 7, on atosiban): well absorbed
- plasma concentrations and pharmacokinetic parameters compared with non-pregnant women ([1]; Part A, listed as Compound (2)): comparable
- substrate for the Pept1 transporter protein [2]: not substrates
SMILES: CC(C)[C@H](N)C(=O)OCC[C@H](NC(=O)[C@@H]1SCCN1S(=O)(=O)c1ccc(-c2ccccc2)cc1)c1ccc(F)cc1 [compound (2), (3S)-3-({[(2S)-3-(biphenyl-4-ylsulfonyl)-1,3-thiazolidin-2-yl]carbonyl}-amino)-3-(4-fluorophenyl)propyl L-valinate]
- adverse events compared with placebo [3]: fewer adverse events
- patients that did not deliver within 7 days of administration ([4]; 9 singleton patients, 1,000 mg loading then 500 mg twice daily oral 7 days, on 48 h atosiban infusion): 8 patients
- Mean±SD time to delivery ([4]; 9 singleton patients, oral compound (2) 7 days, on atosiban infusion): 41 ± 23 days
- adverse events reported for the fetuses [5]: No adverse events
- Amniotic Fluid Index ([5]; days 1 to 14 (FIG. 3)): no clinically significant changes
- Doppler ultrasound findings, effect on the ductus arteriosus ([5]; fetal cardiac safety): no constrictive effect on the ductus arteriosus
- tolerability ([5]; oral administration for 7 days, women receiving atosiban): well tolerated
- ductus arteriosus Pulsatility Index ([5]; over the dosing period (FIG. 2)): did not decrease
- OR (90% CI), delivery ≤48 h ([6]; all women, atosiban + compound (2) vs atosiban + placebo, adjusted odds ratio): 0.52
- OR (90% CI), delivery ≤7 days ([6]; all women, vs atosiban + placebo): 1.00
- reduction in uterine contractions relative to baseline ([6]; in combination with atosiban, vs atosiban and placebo (FIG. 7)): more sustained reduction
- delivery rate within 7 days ([6]; singleton pregnancy, 24 to 30 weeks GA): 14.3%
- OR (90% CI), delivery ≤7 days ([6]; singletons only, GA 24 to 30 wks at BL, vs atosiban + placebo): 0.53
- OR (90% CI), delivery ≤48 h ([6]; singletons only, vs atosiban + placebo): 0.39
- OR (90% CI), delivery ≤48 h ([6]; twins only, vs atosiban + placebo): 2.05
- solubility in water and in FeSSIF and FaSSIF media [7]: improvements

SMILES: O=C(N[C@@H](CCO)c1ccc(F)cc1)C1SCCN1S(=O)(=O)c1ccc(-c2ccccc2)cc1 (stereo in doubt) [Compound 1, 3-([1,1′-biphenyl]-4-ylsulfonyl)-N-[1-(4-fluorophenyl)-3-hydroxypropyl]-1,3-thiazolidine-2-carboxamide]
- Ki [8]: 6 nM

- hygroscopicity [9]: low hygroscopicity
- stability of crystal form ([9]; ambient conditions and elevated relative humidity): extended stability
SMILES: CC(C)[C@H](N)C(=O)OCC[C@H](NC(=O)[C@@H]1SCCN1S(=O)(=O)c1ccc(-c2ccccc2)cc1)c1ccc(F)cc1.Cl [Compound 3, (3S)-3-({[(2S)-3-(biphenyl-4-ylsulfonyl)-1,3-thiazolidin-2-yl]carbonyl}-amino)-3-(4-fluorophenyl)propyl L-valinate hydrochloride]
